For series [1] the following is noted: mouse, in vivo; cited from earlier work.
Series [2] has as its system DU-145 prostate adenocarcinoma cells. Nature of the series: KI library screen for TRAIL sensitization. The series is classed as cell-based, human. The source says:
(§1) A library of KIs was screened for TRAIL sensitization in various TRAIL-resistant cancer cells, including: HT29 (CRC), MDA-MB-231 (breast), LNCAP (prostate), DU145 (prostate), PC3 (prostate) and A549 (lung). […] The 355 KIs comprised of compounds targeting diverse kinases, including multi kinases, RTK (receptor kinase tyrosine), PI3K (phosphinistide 3-kinase), aurora kinases, including […] (mitogen-activated protein kinase). […] The interaction between KIs and TRAIL had been previously explored in vitro with the tyrosine KI sorafenib, a drug similar to regorafenib. However, such studies were mostly performed on cellular levels and not in in vivo models, combined with systemically administered recombinant TRAIL. Although a similar structure, regorafenib was newly approved in 2012. The interactions between the three other selected KIs and TRAIL have not been previously reported, in vitro or in vivo.

The test system of series [3] is PC3 prostate adenocarcinoma cells. Nature of the series: KI library screen for TRAIL sensitization. The series is classed as cell-based, human. The procedure:
FIG. 2B depicts a bar graph showing quantified cell death after analyzing synergized cell death induced by TRAILPEG (1 μg/mL for 3 hr) and kinase inhibitors (KIs) in HT29 (human colon tumor cell line) and PC3 (human prostate tumor cell line) cells individually pretreated with selected 355 KIs. Relative cell death rates were calculated by [KI+TRAILPEG]/[KI alone] after separate MTT assays. The arrows indicate KIs with >60% cell death; n=3.
as §1

Series [4] has as its system A549 lung carcinoma cells. Nature of the series: KI library screen for TRAIL sensitization. Type of series: cell-based, human.
Description: as §1

Series [5] deals with MDA-MB-231 breast cancer cells. As to the kind of experiment: KI library screen for TRAIL sensitization. The series is classed as cell-based, human.
Description: as §1

Series [6] deals with HP LNCAP prostate adenocarcinoma cells. Nature of the series: KI library screen for TRAIL sensitization. The series is classed as cell-based, human.
Description: as §1
Regorafenib potentiated TRAIL-induced apoptosis in prostate cancer cells (LNCAP, HPLNCAP (High Passages LNCAP), DU-145 and PC-3) when combined with TRAILPEG (1 μg/mL) (FIG. 5). After treating cells with regorafenib (5 μM), caspases and anti-apoptotic proteins were analyzed by western blotting (FIG. 6A-FIG. 6C). […] Data confirmed that FDA-approved KIs or KIs under clinical development synergized with long-acting TRAILPEG by overcoming TRAIL-resistance through unique TRAIL sensitization mechanisms.

Series [7] deals with LNCAP prostate adenocarcinoma cells. Nature of the series: KI library screen for TRAIL sensitization. Type of series: cell-based, human.
Description: as §1

Take “2K-PEG-TRAIL: TRAIL derivatized with 2K PEG (Kim, et al.)”: the circulating half-life in series [1] was 3.9 h.
With “5K-PEG-TRAIL: TRAIL derivatized with 5K PEG (Kim, et al.)”, the circulating half-life in series [1] was 5.3 h.
Consider “10K-PEG-TRAIL: TRAIL derivatized with 10K PEG (Kim, et al.)”, for which the circulating half-life in series [1] is 6.2 h.
Take “20K-PEG-TRAIL: TRAIL derivatized with 20K PEG (Kim, et al.)”: the circulating half-life in series [1] is 12.3 h.
Regarding “30K-PEG-TRAIL: TRAIL derivatized with 30K PEG (Kim, et al.)”, in series [1], the circulating half-life was 17.7 h.
On to `C=CC(=O)Nc1ccc2ncnc(Nc3ccc(OCc4cccc(F)c4)c(Cl)c3)c2c1` [AST-1306], for which the “KIs that sensitize cancer cells to TRAIL-based agents” value (“KIs that sensitize cancer cells” for short) in series [2] and in series [3] was “Example KIs that sensitize cancer cells to TRAIL-based agents” each time.
Regarding `COc1cc(N2CCC(N)CC2)ccc1Nc1ncc(Cl)c(-c2c[nH]c3ccccc23)n1` [AZD3463], the “KIs that sensitize cancer cells” value in series [2] and in series [3] was “Example KIs that sensitize cancer cells to TRAIL-based agents” throughout.
For the compound `COCCOc1ccc2c(c1)ncn2-c1ccc2cccc(N3CCC(N)CC3)c2n1` [CP-673451], the “KIs that sensitize cancer cells” value in series [4] and in series [3] was “Example KIs that sensitize cancer cells to TRAIL-based agents” throughout.
`COc1cc2ncnc(Nc3ccc(F)c(Cl)c3)c2cc1NC(=O)/C=C/CN1CCCCC1` [Dacomitinib (PF299804, PF299), Dacomitinib]: the “KIs that sensitize cancer cells” value in series [2] and in series [5] was “Example KIs that sensitize cancer cells to TRAIL-based agents” throughout.
As for `COc1cc2c(Oc3ccc(NC(=O)C4(C(=O)Nc5ccc(F)cc5)CC4)cc3F)ccnc2cc1OCCCN1CCOCC1` [Foretinib (GSK1363089), Foretinib], in series [2], the “KIs that sensitize cancer cells” value is recorded as “Example KIs that sensitize cancer cells to TRAIL-based agents”.
For the compound `COc1cc2nccc(Oc3ccc(NC(=O)NC4CC4)c(Cl)c3)c2cc1C(N)=O` [Lenvatinib (E7080), Lenvatinib], the “KIs that sensitize cancer cells” value in series [6] is on record as “Example KIs that sensitize cancer cells to TRAIL-based agents”.
Turning to `CCOc1cc2ncc(C#N)c(Nc3ccc(OCc4ccccn4)c(Cl)c3)c2cc1NC(=O)/C=C/CN(C)C` [Neratinib (HKI-272), Neratinib], in series [2], the “KIs that sensitize cancer cells” value is on record as “Example KIs that sensitize cancer cells to TRAIL-based agents”.
As to `C=CC(=O)Nc1ccc2ncnc(Nc3cccc(Br)c3)c2c1` [PD168393], in series [6], the “KIs that sensitize cancer cells” value was “Example KIs that sensitize cancer cells to TRAIL-based agents”.
For `Cn1cc(-c2ccc3nnc(Sc4ccc5ncccc5c4)n3n2)cn1` [SGX-523], the “KIs that sensitize cancer cells” value in series [7] and in series [6] was “Example KIs that sensitize cancer cells to TRAIL-based agents” throughout.
Turning to `CC(C)(C)c1cc(C=C(C#N)C#N)cc(C(C)(C)C)c1O` [Tyrphostin 9], the “KIs that sensitize cancer cells” value in series [7], in series [2], in series [3] and in series [6] was “Example KIs that sensitize cancer cells to TRAIL-based agents” throughout.
`CC(C)(C)c1cc(/C=C(\C#N)C(N)=S)cc(C(C)(C)C)c1O` [Tyrphostin AG 879]: the “KIs that sensitize cancer cells” value in series [6] is “Example KIs that sensitize cancer cells to TRAIL-based agents”.
Turning to `C=CC(=O)Nc1cccc(Oc2nc(Nc3ccc(N4CCN(C)CC4)cc3OC)ncc2Cl)c1` [WZ4002], the “KIs that sensitize cancer cells” value in series [4] and in series [6] was “Example KIs that sensitize cancer cells to TRAIL-based agents” in each case.

Source of the values: patent US20210169984A1, “SENSITIZING CANCER TO DEATH RECEPTOR AGONISTS WITH KINASE INHIBITORS” (The Johns Hopkins University, priority 2016, published 2021).
